Assay results: patent US8236963B2, “Tricyclic spiro derivatives as CRTH2 modulators” (Merck Serono SA, priority 2005, dated 2012)

Assays:
CRTH2 [1] = biological target: T1, CRTH2 (Homo sapiens, UniProt Q9Y5Y4); assay: Radioligand binding assay ([3H]PGD2, hCRTH2 HEK293 (EBNA) cell membranes); parameters: expressed in transfected cells; host or cells: HEK293 (EBNA) cells, membrane preparation; details: 1.5 nM [3H]PGD2, 10 μg hCRTH2 HEK293 (EBNA) membrane protein, 60 min at room temperature
T1 sequence (Q9Y5Y4 1-395): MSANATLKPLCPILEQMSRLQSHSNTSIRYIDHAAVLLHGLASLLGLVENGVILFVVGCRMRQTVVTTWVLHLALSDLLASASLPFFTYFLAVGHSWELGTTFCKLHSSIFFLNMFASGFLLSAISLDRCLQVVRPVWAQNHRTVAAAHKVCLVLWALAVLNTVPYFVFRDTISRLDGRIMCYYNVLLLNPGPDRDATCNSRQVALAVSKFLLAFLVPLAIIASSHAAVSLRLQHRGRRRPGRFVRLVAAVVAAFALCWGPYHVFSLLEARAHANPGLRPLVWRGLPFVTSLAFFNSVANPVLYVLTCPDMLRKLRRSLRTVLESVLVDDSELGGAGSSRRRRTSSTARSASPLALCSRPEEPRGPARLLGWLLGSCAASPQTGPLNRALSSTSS
Source text: Human CRTH2 cDNA was amplified by PCR using a human urinary bladder cDNA library as a template and specific primers containing HindIII and BamHI restriction sites for cloning into the pCEP4 vector (Invitrogen). The vector construction is described in detail in Sawyer et al., Br. J. Pharmocol 2002, 137, 1163-72. The nucleotide sequence of the cloned cDNA was identical the previously reported hCRTH2 sequence (Nagata et al, 1999, J. Immunol. 162, 1278-1286).
HEK293 (EBNA) cells were transfected with the pCEP4-hCRTH2 construct using the calcium phosphate technique. Cells were maintained in culture at 37° C. in an atmosphere of 5% CO2 in Dulbecco's modified Eagle's F12 medium (Invitrogen), containing 10% heat-inactivated foetal calf serum (TerraCell International, Canada), 2 mM Glutamine, 100 units/ml of penicillin and 100 μg/ml streptomycin (Invitrogen). 48 hours after the transfection, cells were grown in presence of 300 μg/ml of Hygromycin B (Invitrogen) for 4 weeks and antibiotic resistant cells were amplified for cell membrane preparation.
Adherent HEK293 (EBNA) cells expressing hCRTH2 were cultured in 225 cm^2 cell culture flasks (Corning, USA) in 30 ml of medium. After two rinses of phosphate buffered saline (PBS), cells were harvested in 10 ml of PBS containing 1 mM EDTA, centrifuged at 500×g for 5 min at 4° C. and frozen at −80° C. The pellet was re-suspended in 50 mM Tris-HCl, pH 7.4, 2 mM EDTA, 250 mM Sucrose, containing protease inhibitor cocktail tablets, (Complete EDTA-free, Roche, Germany) and incubated 30 min at 4° C. Cells were disrupted by nitrogen cavitation (Parr Instruments, USA) at 4° C. (800 p.s.i. for 30 min), and centrifuged at 500×g for 10 min at 4° C. Pellet containing nuclei and cellular debris was discarded and supernatant was centrifuged 60 min at 4° C. at 45000×g. Membrane pellet was re-suspended in storage buffer (10 mM HEPES/KOH pH 7.4, 1 mM EDTA, 250 mM sucrose, protease inhibitor cocktail tablets) using Dounce homogenization and frozen in liquid nitrogen, and stored at −80° C.
The inhibitory activity can be investigated by a radioligand binding assay (Sawyer et al., Br. J. Pharmocol 2002, 137, 1163-72). The radioligand binding assay was performed at room temperature in binding buffer (10 mM HEPES/KOH pH […], with protease inhibitor cocktail tablets), containing 1.5 nM [^3H]PGD2 (Amersham, 156 Cie/mmol), and 10 μg of hCRTH2 HEK293 (EBNA) cell membrane protein in a final volume of 100 μl in 96 well plates (Corning, USA). Non-specific binding was determined in the presence of 1 μM PGD2 (Cayman, USA). Competing spiro-indolinones were diluted in dimethylsulphoxide so that the total volume of dimethylsulfoxide was kept constant at 1% dimethylsulphoxide (Me2SO) Serial dilutions of 100 μM and […] were prepared. 10 μl each of these spiro-indolinone stock solutions were added. Incubation (60 min at room temperature) was terminated by rapid filtration through 96 wells hydrophobic GF/C Unifilter plates (Whatman, USA). Filters were washed twice with 250 μl of Tris-HCl pH 7.4, 10 mM MnCl2, and residual radioligand bound to the filters was mixed to 100 μl of liquid scintillation cocktail (Optiphase Supermix, Perkin Elmer, USA) and binding activity was determined by counting residual radioligand using a 1450 Micro-beta scintillation counter (Wallac, UK). The following representative compounds were tested. […]

[2] = system: DK-PGD2-induced vascular leakage; assay: Model of DK-PGD2-induced vascular leakage in mice; type: in vivo, Balb/c mice; details: Mus musculus, 1.5 h; dose of 30 mg/kg; 30 min before DK-PGD2 challenge; Evans blue extravasation
Description: This test is described in Takeshita et al. (2004). Balb/c mice (Elevage Janvier) (8 week old) received an intradermal injection of DK-PGD2 (10 μg in 30 μl) on their shaved backs and an intravenous injection of Evans blue solution (25 mg/kg) 30 min after administration of the test molecules (spiro derivative). Ninety minutes after the challenge, the animals were sacrificed. The skin of the back was removed and blood was sampled. The extravasated dye (punch diameter: 5 mm) was extracted by 0.2 ml of formamide and was quantified by fluorescence (E1: 585 nm, E2: 660 nm). The Evans Blue extravasation ratio was expressed as the following: skin/serum×1000.

CRTH2 [3] = biological target: T1, CRTH2; assay: Determination of Ki (radioligand binding assay, equilibrium competition against [3H]PGD2); parameters: expressed in transfected cells; host or cells: HEK293 (EBNA) cells, membrane preparation; details: average of at least three independent dose response experiments
Description: The inhibitory activity can be investigated by a radioligand binding assay (Sawyer et al., Br. J. Pharmocol 2002, 137, 1163-72). The radioligand binding assay was performed at room temperature in binding buffer (10 mM HEPES/KOH pH […], with protease inhibitor cocktail tablets), containing 1.5 nM [^3H]PGD2 (Amersham, 156 Cie/mmol), and 10 μg of hCRTH2 HEK293 (EBNA) cell membrane protein in a final volume of 100 μl in 96 well plates (Corning, USA). Non-specific binding was determined in the presence of 1 μM PGD2 (Cayman, USA). Competing spiro-indolinones were diluted in dimethylsulphoxide so that the total volume of dimethylsulfoxide was kept constant at 1% dimethylsulphoxide (Me2SO) Serial dilutions of 100 μM and […] were prepared. 10 μl each of these spiro-indolinone stock solutions were added. Incubation (60 min at room temperature) was terminated by rapid filtration through 96 wells hydrophobic GF/C Unifilter plates (Whatman, USA). Filters were washed twice with 250 μl of Tris-HCl pH 7.4, 10 mM MnCl2, and residual radioligand bound to the filters was mixed to 100 μl of liquid scintillation cocktail (Optiphase Supermix, Perkin Elmer, USA) and binding activity was determined by counting residual radioligand using a 1450 Micro-beta scintillation counter (Wallac, UK). The following representative compounds were tested. All inhibited the binding of PGD2 to CRTH2 by more than 70%. • (1′-benzyl-5-chloro-2,2′,5′-trioxospiro[indole-3,3′-pyrrolidin]-1(2H)-yl)acetic acid • (1′-benzyl-5-fluoro-2,2′,5′-trioxospiro[indole-3,3′-pyrrolidin]-1(2H)-yl)acetic acid • 4-(1′-allyl-5-chloro-2,2′,5′-trioxospiro[indole-3,3′-pyrrolidin]-1(2H)-yl)butanoic acid • [5-chloro-1′-(2-methoxyethyl)-2,2′,5′-trioxospiro[indole-3,3′-pyrrolidin]-1(2H)-yl]acetic acid • 4-(1′-benzyl-5-chloro-2,2′,5′-trioxospiro[indole-3,3′-pyrrolidin]-1(2H)-yl)butanoic acid • (1′-benzyl-5-methoxy-2,2′,5′-trioxospiro[indole-3,3′-pyrrolidin]-1(2H)-yl)acetic acid • [5-fluoro-1′-[(2-methoxyethoxy)methyl]-2,2′,5′-trioxospiro[indole-3,3′-pyrrolidin]-1(2H)-yl]acetic acid • 4-(1′-allyl-5-fluoro-2,2′,5′-trioxospiro[indole-3,3′-pyrrolidin]-1(2H)-yl)butanoic acid • 4-(1′-benzyl-5-fluoro-2,2′,5′-trioxospiro[indole-3,3′-pyrrolidin]-1(2H)-yl)butanoic acid
Ki values were determined by equilibrium competition binding experiments against [^3H]PGD2. Ki values were calculated from the formula below and represent the average of at least three independent dose response experiments. The Ki values give the ligand concentrations necessary to inhibit 50% of the binding of [^3H]PGD2 to CRTH2. Ki=IC50/(1+[Concentration of Ligand]/Kd)]
All experiments were performed in 96 well plates, in a final volume of 100 μl according to the above described filtration assay. The concentration of membranes and 3 [H]PGD2, as well as the positive and negative controls were identical to the conditions described above.

SMILES | inhibition (CRTH2 [1]) | inhibition in vivo at 30 mg/kg [2] | Ki (CRTH2 [3])
O=C(O)CCCN1C(=O)C2(CC(=O)N(Cc3ccccc3)C2=O)c2cc(Cl)ccc21 (stereo not drawn) [4-(1′-benzyl-5-chloro-2,2′,5′-trioxospiro[indole-3,3′-pyrrolidin]-1(2H)-yl)butanoic acid] | > 70% |  | 
O=C(O)CN1C(=O)[C@@]2(CC(=O)N(Cc3cc(Cl)ccc3F)C2=O)c2cc(Cl)ccc21 [Compound 112, (3R)-[5-chloro-1′-(2-fluoro-5-chlorobenzyl)-2,2′,5′-trioxospiro[indole-3,3′-pyrrolidin]-1(2H)-yl]acetic acid] |  | 61% | 150 nM
COCCN1C(=O)CC2(C1=O)C(=O)N(CC(=O)O)c1ccc(Cl)cc12 (stereo not drawn) [[5-chloro-1′-(2-methoxyethyl)-2,2′,5′-trioxospiro[indole-3,3′-pyrrolidin]-1(2H)-yl]acetic acid] | > 70% |  | 
C=CCN1C(=O)CC2(C1=O)C(=O)N(CCCC(=O)O)c1ccc(Cl)cc12 (stereo not drawn) [4-(1′-allyl-5-chloro-2,2′,5′-trioxospiro[indole-3,3′-pyrrolidin]-1(2H)-yl)butanoic acid] | > 70% |  | 
Cc1noc(-c2ccccc2)c1CN1CC2(CC1=O)C(=O)N(CC(=O)O)c1ccc(Cl)cc12 (stereo not drawn) [Compound 114, [5-chloro-1′-[(3-methyl-5-phenylisoxazol-4-yl)methyl]-2,5′-dioxospiro[indole-3,3′-pyrrolidin]-1(2H)-yl]acetic acid] |  | 44% | 3.4 nM
O=C(O)CN1C(=O)[C@]2(CC(=O)N(Cc3cc(Cl)ccc3F)C2=O)c2cc(Cl)ccc21 [Compound 111, (3S)-[5-chloro-1′-(2-fluoro-5-chlorobenzyl)-2,2′,5′-trioxospiro[indole-3,3′-pyrrolidin]-1(2H)-yl]acetic acid] |  | 65% | 470 nM
O=C(O)CN1C(=O)[C@@]2(CC(=O)N(Cc3ccccc3F)C2=O)c2cc(Cl)ccc21 [Compound 109, (3R)-[5-chloro-1′-(2-fluorobenzyl)-2,2′,5′-trioxospiro[indole-3,3′-pyrrolidin]-1(2H)-yl]acetic acid] |  | 38% | 28 nM
COCCOCN1C(=O)CC2(C1=O)C(=O)N(CC(=O)O)c1ccc(F)cc12 (stereo not drawn) [[5-fluoro-1′-[(2-methoxyethoxy)methyl]-2,2′,5′-trioxospiro[indole-3,3′-pyrrolidin]-1(2H)-yl]acetic acid] | > 70% |  | 
COc1ccc2c(c1)C1(CC(=O)N(Cc3ccccc3)C1=O)C(=O)N2CC(=O)O (stereo not drawn) [(1′-benzyl-5-methoxy-2,2′,5′-trioxospiro[indole-3,3′-pyrrolidin]-1(2H)-yl)acetic acid] | > 70% |  | 
O=C(O)CN1C(=O)C2(CC(=O)N(Cc3ccccc3)C2=O)c2cc(F)ccc21 (stereo not drawn) [(1′-benzyl-5-fluoro-2,2′,5′-trioxospiro[indole-3,3′-pyrrolidin]-1(2H)-yl)acetic acid] | > 70% |  | 
O=C(O)CCCN1C(=O)C2(CC(=O)N(Cc3ccccc3)C2=O)c2cc(F)ccc21 (stereo not drawn) [4-(1′-benzyl-5-fluoro-2,2′,5′-trioxospiro[indole-3,3′-pyrrolidin]-1(2H)-yl)butanoic acid] | > 70% |  | 
C=CCN1C(=O)CC2(C1=O)C(=O)N(CCCC(=O)O)c1ccc(F)cc12 (stereo not drawn) [4-(1′-allyl-5-fluoro-2,2′,5′-trioxospiro[indole-3,3′-pyrrolidin]-1(2H)-yl)butanoic acid] | > 70% |  | 
Cc1nc(CN2C(=O)CC3(C2=O)C(=O)N(CC(=O)O)c2ccc(Cl)cc23)cs1 (stereo not drawn) [Compound 1, [5-chloro-1′-[(2-methyl-1,3-thiazol-4-yl)methyl]-2,2′,5′-trioxospiro[indole-3,3′-pyrrolidin]-1(2H)-yl]acetic acid] |  |  | 39 nM
COc1ccnc(CN2C(=O)CC3(C2=O)C(=O)N(CC(=O)O)c2ccc(Cl)cc23)c1OC (stereo not drawn) [Compound 78, [5-chloro-1′-[(3,4-dimethoxypyridin-2-yl)methyl]-2,2′,5′-trioxospiro[indole-3,3′-pyrrolidin]-1(2H)-yl]acetic acid] |  |  | 101 nM
